# Experimental data as given in PMC7351026, “Serum Half-Lives for Short- and Long-Chain Perfluoroalkyl Acids after Ceasing Exposure from Drinking Water Contaminated by Firefighting Foam” (Environmental Health Perspectives, 2020).
# Legend:
# [1] = Individual serum elimination rate and half-life (linear regression per employee); details: individual estimate;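 as to HL (half-life): half-life in years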
# Method: Serum PFAS concentrations were log-transformed. Time was calculated as the elapsed days between supply of clean bottled water and […] blood sampling. We assumed one compartment, first-order elimination kinetics. In this kinetic model, the body is considered as one homogeneous volume in which mixing is instantaneous and from which PFAS could be absorbed, transferred, and eliminated according to the rate of elimination that is proportional to the concentration of PFAS in the body. Two methods were used to estimate serum elimination rate constant (k) and half-life for each PFAS:
# Method 2: For estimation of individual k, linear regression was used to derive the slope ( β ) of the logarithm of serum concentrations vs. time for each employee. The negative value of the slope ( −β ) for each individual was equivalent to the individual k, and individual serum elimination half-life was calculated as ln2/k for each PFAS. If β was positive (i.e., PFAS concentrations tended to increase over the five samplings), the half-life was not calculated.
# [2] = PFAS levels in serum samples of airport employees (LC/MS/MS)
# Excerpt: All 26 employees at the airport were invited for a blood sampling between 11 and 14 September 2018 (i.e., within 11 to 14 d after the termination of contaminated drinking-water exposure). Information on age, home address, employment history, working tasks, and sick leave and vacation days in August and September were collected by questionnaire. In addition, data on the number of glasses of water consumed per day, local fish consumption, and history of blood donation and medication were collected. For female employees, questions about menstruation, pregnancy, and duration of breast-feeding were asked.
# The PFAS analysis in serum from the first sampling was immediately performed and personal results were reported to the employees. […] These 17 employees submitted four rounds of blood and first morning urine samples in parallel, at 1-month intervals. In total, there were five rounds of serum sampling (started from September) and four rounds of urine sampling (from October). For modeling of elimination, all samples were reanalyzed in a single batch. We obtained 83 serum samples with a median count of 5 (range: 4–5) samples per employee, and 59 urine samples with median of 4 (range: 1–4) samples per employee. Only one employee provided a single urine sample. The study was approved by the Regional Ethical Review Board in Lund, Sweden. All employees provided written informed consent.
# Venous whole blood samples were obtained and were centrifuged for 10 min at 1,500×g at room temperature to isolate the serum on site. The serum samples were collected in 6-mL BD Vacutainer® Plus plastic serum tubes without gel (BD). Urine samples were collected in 13-mL polypropylene screw cap tubes (Sarstedt). Serum and urine samples were frozen at −20°C after sampling and transported to Lund using cold chain logistics. Serum and urine samples were stored at −80°C and −20°C , respectively, before analysis.
# The serum samples, QC samples, and chemical blanks were prepared in 96-well plates with 1.5-mL flat-bottom glass vials (Biotech solutions). Serum samples were thawed for 1–2 h and mixed on a vortex shaker for approximately 10 s two times. Once after all samples were thawed and a second time before pipetting the serum to the plate. Before pipetting, the tip was pre-wetted several times, drawing a volume into the tip and dispensing it back into the tube. Sample preparation procedures for serum samples consisted of 25μL serum mixed with 25μL water, 25μL methanol, 25μL isotopically labeled internal standards in 50% acetonitrile (see Table S1), and 100μL acetonitrile. Thereafter, samples were mixed vigorous by shaking for 30 min and centrifuged at 2,600×g for 10 min at room temperature. The supernatant ( 0.2mL ) was transferred to 96-well plates with 0.5-mL conical glass vials (MicroLiter Analytical Supplies) and again centrifuged at 3,000×g for 10 min before analysis. The QC samples and chemical blanks were prepared following the same procedure as the serum samples. The calibration standards were prepared in FBS the same way as the samples, except for the addition of diluted reference standards of all analyzed compounds in 25μL of the methanol solution.
# Aliquots of 4μL of the sample were analyzed using LC/MS/MS. For the analysis, a C18 column ( 4μm , 2.1mm i.d.×50mm , Genesis Lightning) was used prior to the injector to filter the mobile phases. The analytical column was an Aquity BEH ( 1.7μm , 2.1mm i.d.×100mm Waters). The mobile phases (A and B) were A: 5 mM ammonium acetate in water:methanol (50:50); and B: methanol. The mobile phase was kept at 0% B for 2.5 min after injection. A gradient was then applied over 11 min to 90% B, where it was then kept for 1.5 min. The column was then conditioned at 0% B for 2 min.
# [3] = 1st sampling (September 2018), count 17
# [4] = 2nd sampling (October 2018), count 17
# [5] = 3rd sampling (November, 2018), count 17
# [6] = 4th sampling (December 2018), count 16
# [7] = 5th sampling (January 2019), count 16
# [8] = employees participated in first blood sampling and repeated blood and urine sampling, N=17
# [9] = employees participated in first blood sampling only, N=9, 11-14 d after end of exposure
# [10] = median of first serum samples, all 26 airport employees
structure (smiles),measurement,setting,value
"O=S(=O)(O)C(F)(C(F)(F)F)C(F)(F)C(F)(F)C(F)(F)C(F)(F)C(F)(F)C(F)(F)F (centres unmarked) [1m-PFOS, perfluoro-1-methylheptanesulfonate]",Elimination rate,"[1]; subject 1, 5 samples",0.3 yearly
same,HL (half-life),"[1]; subject 1, 5 samples",2.0 year
same,Elimination rate,"[1]; subject 2, 5 samples",0.1 yearly
same,HL (half-life),"[1]; subject 2, 5 samples",5.4 year
same,Elimination rate,"[1]; subject 3, 5 samples",0.8 yearly
same,HL (half-life),"[1]; subject 3, 5 samples",0.9 year
same,Elimination rate,"[1]; subject 4, 5 samples",−0.1 yearly
same,Elimination rate,"[1]; subject 5, 5 samples",0.1 yearly
same,HL (half-life),"[1]; subject 5, 5 samples",5.9 year
same,Elimination rate,"[1]; subject 6, 4 samples",−0.1 yearly
same,Elimination rate,"[1]; subject 7, 5 samples",−0.3 yearly
same,Elimination rate,"[1]; subject 8, 5 samples",−0.5 yearly
same,Elimination rate,"[1]; subject 9, 5 samples",−0.3 yearly
same,Elimination rate,"[1]; subject 10, 5 samples",0.6 yearly
same,HL (half-life),"[1]; subject 10, 5 samples",1.2 year
same,Elimination rate,"[1]; subject 11, 5 samples",1.9 yearly
same,HL (half-life),"[1]; subject 11, 5 samples",0.4 year
same,Elimination rate,"[1]; subject 12, 5 samples",0.03 yearly
same,Elimination rate,"[1]; subject 13, 5 samples",1.1 yearly
same,HL (half-life),"[1]; subject 13, 5 samples",0.6 year
same,Elimination rate,"[1]; subject 14, 4 samples",1.7 yearly
same,HL (half-life),"[1]; subject 14, 4 samples",0.4 year
same,Elimination rate,"[1]; subject 15, 5 samples",1.3 yearly
same,HL (half-life),"[1]; subject 15, 5 samples",0.6 year
same,Elimination rate,"[1]; subject 16, 5 samples",−0.3 yearly
same,Elimination rate,"[1]; subject 17, 5 samples",2.2 yearly
same,HL (half-life),"[1]; subject 17, 5 samples",0.3 year
same,"Serum PFAS level, 25 percentile",[2]; [3],0.48
same,"Serum PFAS level, 75 percentile",[2]; [3],1.8
same,"Serum PFAS level, Max",[2]; [3],4.1
same,"Serum PFAS level, Median",[2]; [3],1.0
same,"Serum PFAS level, Min",[2]; [3],0.32
same,"Serum PFAS level, 25 percentile",[2]; [4],0.54
same,"Serum PFAS level, 75 percentile",[2]; [4],1.4
same,"Serum PFAS level, Max",[2]; [4],4.0
same,"Serum PFAS level, Median",[2]; [4],0.89
same,"Serum PFAS level, Min",[2]; [4],0.26
same,"Serum PFAS level, 25 percentile",[2]; [5],0.54
same,"Serum PFAS level, 75 percentile",[2]; [5],1.5
same,"Serum PFAS level, Max",[2]; [5],4.4
same,"Serum PFAS level, Median",[2]; [5],0.88
same,"Serum PFAS level, Min",[2]; [5],0.24
same,"Serum PFAS level, 25 percentile",[2]; [6],0.47
same,"Serum PFAS level, 75 percentile",[2]; [6],1.3
same,"Serum PFAS level, Max",[2]; [6],4.3
same,"Serum PFAS level, Median",[2]; [6],0.91
same,"Serum PFAS level, Min",[2]; [6],0.24
same,"Serum PFAS level, 25 percentile",[2]; [7],0.51
same,"Serum PFAS level, 75 percentile",[2]; [7],1.3
same,"Serum PFAS level, Max",[2]; [7],4.5
same,"Serum PFAS level, Median",[2]; [7],0.97
same,"Serum PFAS level, Min",[2]; [7],0.26
same,"PFAS in first serum sample, median (range)",[2]; [8],1.0 (0.32–4.1) ng/mL
same,"PFAS in first serum sample, median (range)",[2]; [9],0.52 (0.25–2.7) ng/mL
same,"Initial serum PFAS level, max",[2]; females (N=7),1.1 ng/mL
same,"Initial serum PFAS level, median",[2]; females (N=7),0.58 ng/mL
same,"Initial serum PFAS level, min",[2]; females (N=7),0.39 ng/mL
same,"Initial serum PFAS level, Max",[2]; males (N=19),4.1 ng/mL
same,"Initial serum PFAS level, Min",[2]; males (N=19),0.25 ng/mL
same,"Initial serum PFAS level, median",[2]; males (N=19),1.1 ng/mL
"O=S(=O)(O)C(F)(F)C(F)(F)C(F)(F)C(F)(F)C(F)(F)C(F)(F)C(F)(F)C(F)(F)F [L-PFOS, linear perfluorooctane sulfonic acid]",Elimination rate,"[1]; subject 1, 5 samples",−0.2 yearly
same,Elimination rate,"[1]; subject 2, 5 samples",0.4 yearly
same,HL (half-life),"[1]; subject 2, 5 samples",1.7 year
same,Elimination rate,"[1]; subject 3, 5 samples",0.5 yearly
same,HL (half-life),"[1]; subject 3, 5 samples",1.3 year
same,Elimination rate,"[1]; subject 4, 5 samples",−0.3 yearly
same,Elimination rate,"[1]; subject 5, 5 samples",0.6 yearly
same,HL (half-life),"[1]; subject 5, 5 samples",1.2 year
same,Elimination rate,"[1]; subject 6, 4 samples",0.04 yearly
same,HL (half-life),"[1]; subject 6, 4 samples",17 year
same,Elimination rate,"[1]; subject 7, 5 samples",0.006 yearly
same,Elimination rate,"[1]; subject 8, 5 samples",−0.4 yearly
same,Elimination rate,"[1]; subject 9, 5 samples",0.4 yearly
same,HL (half-life),"[1]; subject 9, 5 samples",1.8 year
same,Elimination rate,"[1]; subject 10, 5 samples",−0.2 yearly
same,Elimination rate,"[1]; subject 11, 5 samples",0.1 yearly
same,HL (half-life),"[1]; subject 11, 5 samples",4.7 year
same,Elimination rate,"[1]; subject 12, 5 samples",0.8 yearly
same,HL (half-life),"[1]; subject 12, 5 samples",0.9 year
same,Elimination rate,"[1]; subject 13, 5 samples",0.2 yearly
same,HL (half-life),"[1]; subject 13, 5 samples",3.7 year
same,Elimination rate,"[1]; subject 14, 4 samples",0.3 yearly
same,HL (half-life),"[1]; subject 14, 4 samples",2.0 year
same,Elimination rate,"[1]; subject 15, 5 samples",0.5 yearly
same,HL (half-life),"[1]; subject 15, 5 samples",1.3 year
same,Elimination rate,"[1]; subject 16, 5 samples",0.6 yearly
same,HL (half-life),"[1]; subject 16, 5 samples",1.2 year
same,Elimination rate,"[1]; subject 17, 5 samples",0.3 yearly
same,HL (half-life),"[1]; subject 17, 5 samples",2.1 year
same,"Serum PFAS level, 25 percentile",[2]; [3],7.7
same,"Serum PFAS level, 75 percentile",[2]; [3],15
same,"Serum PFAS level, Max",[2]; [3],28
same,"Serum PFAS level, Median",[2]; [3],11
same,"Serum PFAS level, Min",[2]; [3],5.5
same,"Serum PFAS level, 25 percentile",[2]; [4],7.6
same,"Serum PFAS level, 75 percentile",[2]; [4],16
same,"Serum PFAS level, Max",[2]; [4],24
same,"Serum PFAS level, Median",[2]; [4],10
same,"Serum PFAS level, Min",[2]; [4],4.1
same,"Serum PFAS level, 25 percentile",[2]; [5],7.3
same,"Serum PFAS level, 75 percentile",[2]; [5],16
same,"Serum PFAS level, Max",[2]; [5],23
same,"Serum PFAS level, Median",[2]; [5],11
same,"Serum PFAS level, Min",[2]; [5],4.7
same,"Serum PFAS level, 25 percentile",[2]; [6],7.4
same,"Serum PFAS level, 75 percentile",[2]; [6],14
same,"Serum PFAS level, Max",[2]; [6],24
same,"Serum PFAS level, Median",[2]; [6],9.8
same,"Serum PFAS level, Min",[2]; [6],4.4
same,"Serum PFAS level, 25 percentile",[2]; [7],9.1
same,"Serum PFAS level, 75 percentile",[2]; [7],16
same,"Serum PFAS level, Max",[2]; [7],23
same,"Serum PFAS level, Median",[2]; [7],10
same,"Serum PFAS level, Min",[2]; [7],4.5
same,"Serum level in the first samples, median (range)",[2]; all 26 airport employees,9.5 (5.4–28) ng/mL
same,"PFAS in first serum sample, median (range)",[2]; [8],11 (5.5–28) ng/mL
same,"PFAS in first serum sample, median (range)",[2]; [9],6.5 (5.4–13) ng/mL
same,"Initial serum PFAS level, max",[2]; females (N=7),13 ng/mL
same,"Initial serum PFAS level, median",[2]; females (N=7),9.3 ng/mL
same,"Initial serum PFAS level, min",[2]; females (N=7),5.5 ng/mL
same,"Relative composition of PFAS in serum, weight basis","[2]; first serum samples, all 26 airport employees",8.6%
same,"Relative composition of PFAS in serum, molar concentration basis","[2]; first serum samples, all 26 airport employees, listed as PFOS (linear)",7.0%
same,"Initial serum PFAS level, Max",[2]; males (N=19),28 ng/mL
same,"Initial serum PFAS level, Min",[2]; males (N=19),5.4 ng/mL
same,"Initial serum PFAS level, median",[2]; males (N=19),10 ng/mL
same,"Serum concentration, molar basis",[2]; [10],0.019
same,"Serum concentration, weight basis",[2]; [10],9.5
same,"Serum level, median (range)","[2]; second to fifth samplings, 17 airport employees",10 (4.1–24) ng/mL
